In brackets after ≈: the same amount, converted by molar mass. Like-named read-outs stand apart in the source and are kept apart here.
Tests used:
[1] = Maximum solubility in water; format: physicochemical; conditions: water at 25° C.; read-out: maximum level of solubility in water
Method: (§1) The cystathionine was added at its maximum level of solubility in water at 25° C., i.e. 0.6 mg/mL of water. The mixture was treated at 121° C. for 15 minutes in an autoclave and was analyzed.

[2] = format: physicochemical; conditions: for L-cystathionine (3 mM) Evaluated loss / L-cysteine (3 mM) Evaluated loss / L-cysteine (3 mM) Free cysteine / L-cysteine (3 mM) Oxidized cysteine: 121° C. for 15 minutes in an autoclave
Method: (§2) The stability of the cystathionine compared to that of cysteine was tested with deionized water and in various liquid enteral formulae (SONDALIS and REABILAN). REABILAN and SONDALIS (registered trademarks) are different enteral compositions comprising 35% of energy in the form of lipids, 50-52.5% in the form of carbohydrates, in particular of maltodextrins and starches, 12.5-15% in the form of peptides or proteins, and also comprising vitamins, mineral salts and other compounds such as taurine or L-camitine.
Stability Under Harsh Sterilization Conditions (121° C.-15 min) at 3 mM Concentration
Unlike cysteine, the cystathionine is found to be very stable.
In the enteral formulae, and after heat treatment, the amount of available cysteine decreases very substantially, and the relative loss of cysteine increases when the amount added decreases.

[3] = Stability under THA sterilization conditions (140° C.-15″), 43 mM in SONDALIS; format: physicochemical; conditions: THA sterilization 140° C.-15″
Method: Stability Under THA Sterilization Conditions (140° C.-15''), at High Concentration (43 mM) in […] […] The THA conditions therefore conventionally induce much less degradation than those described above, but slightly more than industrial UHT conditions. The high concentration (43 mM) was chosen because it falls within the average of that which may be recommended in enteral nutrition products. Under these conditions, the losses of cysteine are lower than for the harsh sterilization conditions (121° C.-15') but remain much too high (27%) for use in a nutrition product.

glutathione status = experiment: Physiological effectiveness: diet supplementation in infected rats (sepsis), glutathione concentration; format: in vivo; conditions: standard protein diet supplemented with cystathionine, compared with cysteine positive control group
Excerpt: Groups of sick rats receiving differentiated diets are compared with regard to the glutathione concentration in various organs but especially in the liver. The liver is in fact the major organ for regulating glutathione synthesis in terms of the whole body. The compared groups received a standard protein diet supplemented either with an amino acid considered to be neutral with respect to glutathione (alanine) (control group), or with cysteine (positive control group), or with cystathionine (test group). A group of animals which are not sick is also realized (normal group).

[4] = Stability in water, autoclave 121° C. for 15 minutes; format: physicochemical; conditions: after 121° C. for 15 minutes
Method: as §2, §1
In water, cystathionine is very stable, even after treatment at 121° C. for 15 minutes, since the degree of recovery is 100%, and the cysteine is slightly oxidized to cystine (6%).

[5] = system: hepatic glutathione status; conditions: rats with sepsis, diet supplemented with cysteine; cited from earlier work

solubility [1] [µg/mL]	stability in the enteral formulae before heat treatment [2]	L-cystathionine (3 mM) Evaluated loss ([2]; REABILAN) [%]	L-cystathionine (3 mM) Evaluated loss ([2]; SONDALIS) [%]	L-cystathionine (43 mM) Evaluated loss [3] [%]	L-cystathionine (43 mM) Non-degraded form [3] [%]	oxidized to cystine [4] [%]	L-cysteine (3 mM) Evaluated loss ([2]; REABILAN) [%]	L-cysteine (3 mM) Free cysteine ([2]; REABILAN) [%]	L-cysteine (3 mM) Oxidized cysteine ([2]; REABILAN) [%]	L-cysteine (3 mM) Evaluated loss ([2]; SONDALIS) [%]	L-cysteine (3 mM) Free cysteine ([2]; SONDALIS) [%]	L-cysteine (3 mM) Oxidized cysteine ([2]; SONDALIS) [%]	L-cysteine (43 mM) Evaluated loss [3] [%]	L-cysteine (43 mM) Free cysteine [3] [%]	L-cysteine (43 mM) Oxidized cysteine [3] [%]	L-cysteine (43 mM) Evaluated loss ([3]; listed as cysteine) [%]	Compound	L-cystathionine (43 mM) Evaluated loss ([3]; listed as cystathionine)	glutathione concentration (glutathione status)	hepatic glutathione status [5]
600 (≈ 2700 µM)	very stable	0	17	4	96												N[C@@H](CCSC[C@H](N)C(=O)O)C(=O)O [L-cystathionine, cystathionine]	at the limit of reproducibility of the assaying method	level equivalent to that of the positive control group	
	relatively unstable					6	83	12	5	86	11	3	27	66	7	27	N[C@@H](CS)C(=O)O [L-cysteine, cysteine]			re-establish hepatic glutathione status at the level of a normal animal

Source: US20050064014A1, “Use of cystathionine” (priority 2001, published 2005)
